We go through 18 molecules from patent US20250177533A1, “PHOTODYNAMIC THERAPY AND DIAGNOSIS” (RMW CHO Group Limited, priority 2021, published 2025).

Data set [1] concerns Human ovarian cancer cell line SKOV3. Kind of data set: Phototoxicity in SKOV3 cells (660 nm laser or LED, AlamarBlue viability). The class given is cell-based. Conditions: Homo sapiens, SK-OV-3, light or radiation study; SKOV3, 24 h uptake, 660 nm laser 50 mW/cm^2 for 5 mins (15 J/cm^2), viability 24 h later; read-out: Phototoxicity μM (IC90). An excerpt:
All data are shown as mean±SD (where appropriate).
Media was then replaced with fresh media containing AlamarBlue, and % viable cells remaining assessed as above. […] All measurements were made in quadruplicate.
(In general: Alamar Blue is a resazurin reagent that responds to reducing activity.)

The test system is the same in data set [2]. Conditions: 24 h.
Method: Serial dilutions were prepared in cell culture media (Dulbecco's Modified Eagle Medium/Nutrient Mixture F-12 (DMEM/F-12)) supplemented with 10% v/v Fetal Bovine Serum, 100 U/mL penicillin, 100 μg/mL streptomycin and the same excipient solution at a constant 1:55 dilution.
Human ovarian cancer cell line SKOV3 (ATCC #HTB-77) was maintained in Dulbecco's Modified Eagle Medium/Nutrient Mixture F-12 (DMEM/F-12), supplemented with 10% v/v Fetal Bovine Serum, 100 U/mL penicillin and 100 μg/mL streptomycin. Monolayer cultures were grown in a humidified incubator at 37° C. with 5% CO2. Once cells had reached ˜80% confluence, spent media was replaced with media containing photosensitizer at the required concentration and cells were incubated for the desired period of time to allow photosensitizer uptake.
Spectral absorbance and viability measurements were normalized in the range 0-100%, with a minimum of 0 and a maximum value determined from the dataset. Dose response was determined using a sigmoidal four-point non-linear regression with variable slope, and IC10 or IC90 calculated for each compound. All data are shown as mean±SD (where appropriate).
On reaching ˜60% confluence, media was aspirated and replaced with fresh media containing the relevant phyllochlorin analogue from 0-100 μM in DMSO.
Untreated cells were used as a control. […] All measurements were made in quadruplicate.
The phototoxicity and inherent cytotoxicity (i.e. “dark toxicity”) of phyllochlorin analogues were assessed as previously using SKOV3 ovarian cancer cells. For comparative purposes, phyllochlorin analogues were compared against chlorin e4 disodium and Talaporfin sodium, a clinically approved photosensitizer used in the photodynamic treatment of lung cancers.

The IC90 is the point of the concentration-response curve where the effect stands at 90%. Turning to `CCC1=C(C)c2cc3[nH]c(cc4nc(c(C)c5cc(C)c(cc1n2)[nH]5)[C@@H](CCC(=O)N(C)CCCO)[C@@H]4C)c(C)c3C(C)OCCCS[C@@H]1O[C@H](CO)[C@@H](O)[C@H](O)[C@H]1O` (stereo partly drawn) [Compound 2, phyllochlorin N-3-hydroxypropyl-N-methyl propylamide propyloxythio-D-glucose], the IC90 in data set [1] was determined as 0.03 µM. The “Dark toxicity μM (IC10)” value in data set [2] was determined as 7.640 µM.

Take `CCC1=C(C)c2cc3[nH]c(cc4nc(c(C)c5cc(C)c(cc1n2)[nH]5)[C@@H](CCC(=O)OC)[C@@H]4C)c(C)c3CO` [Compound 3, phyllochlorin 13-hydroxymethyl methyl ester]: the IC90 in data set [1] is 0.308 µM. Further, the “Dark toxicity μM (IC10)” value in data set [2] is 45.720 µM.

As for `CCC1=C(C)c2cc3[nH]c(cc4nc(c(C)c5cc(C)c(cc1n2)[nH]5)[C@@H](CCC(=O)OC)[C@@H]4C)c(C)c3CO[C@@H]1O[C@H](CO)[C@@H](O)[C@H](O)[C@H]1O` [Compound 4, phyllochlorin 13-hydroxymethyl-β-D-glucoside ether methyl ester], the IC90 in data set [1] stood at 0.099 µM. Also, the “Dark toxicity μM (IC10)” value in data set [2] was 0.775 µM.

Take `CCC1=C(C)c2cc3[nH]c(cc4nc(c(C)c5cc(C)c(cc1n2)[nH]5)[C@@H](CCC(=O)N(C)CCCO)[C@@H]4C)c(C)c3CO[C@@H]1O[C@H](CO)[C@@H](O)[C@H](O)[C@H]1O` [Compound 6, phyllochlorin N-3-hydroxypropyl-N-methyl-propylamide 13-hydroxymethyl-β-D-glucoside ether]: the IC90 in data set [1] was determined as 0.084 µM. Moreover, in data set [2], the “Dark toxicity μM (IC10)” value is 0.528 µM.

Regarding `CCC1=C(C)c2cc3[nH]c(cc4nc(c(C)c5cc(C)c(cc1n2)[nH]5)[C@@H](CCC(=O)OC)[C@@H]4C)c(C)c3CO[C@@H]1O[C@H](CO)[C@@H](O[C@H]2O[C@H](CO)[C@@H](O)[C@H](O)[C@H]2O)[C@H](O)[C@H]1O` [Compound 8, phyllochlorin 13-hydroxymethyl-β-D-maltose ether methyl ester], the IC90 in data set [1] was determined as 0.665 µM. Moreover, the “Dark toxicity μM (IC10)” value in data set [2] was 7.442 µM.

For the molecule `CCC1=C(C)c2cc3[nH]c(cc4nc(c(C)c5cc(C)c(cc1n2)[nH]5)[C@@H](CCC(=O)N(C)C[C@H](O)[C@@H](O)[C@H](O)[C@H](O)CO)[C@@H]4C)c(C)c3CO[C@@H]1O[C@H](CO)[C@@H](O)[C@H](O)[C@H]1O` [Compound 10, phyllochlorin N-meglumine-propylamide-13-hydroxymethyl-β-D-glucoside ether], the IC90 in data set [1] stood at 1.5 µM. The “Dark toxicity μM (IC10)” value in data set [2] turned out to be 4.732 µM.

Turning to `CCC1=C(C)c2cc3[nH]c(cc4nc(c(C)c5cc(C)c(cc1n2)[nH]5)[C@@H](CCC(=O)N(C)CCCO[C@@H]1O[C@H](CO)[C@@H](O)[C@H](O)[C@H]1O)[C@@H]4C)c(C)c3CO[C@@H]1O[C@H](CO)[C@@H](O)[C@H](O)[C@H]1O` [Compound 12, phyllochlorin 13-hydroxymethyl-β-D-glucoside ether-β-D-glucosyl-N-methylpropylamide], the IC90 in data set [1] stood at 0.353 µM. The “Dark toxicity μM (IC10)” value in data set [2] was determined as 2.466 µM.

For `CCC1=C(C)c2cc3[nH]c(cc4nc(c(C)c5cc(C)c(cc1n2)[nH]5)[C@@H](CCC(=O)N(CCOCCOCCOC)CCOCCOCCOC)[C@@H]4C)c(C)c3CO` [Compound 13, phyllochlorin 13-hydroxymethyl-N,N-bis-PEG3OMe propylamide], the concentration for an effect of 90% (IC90) in data set [1] came to 0.421 µM. Moreover, in data set [2], the “Dark toxicity μM (IC10)” value was found to be 60.750 µM.

Turning to `CCC1=C(C)c2cc3[nH]c(cc4nc(c(C)c5cc(C)c(cc1n2)[nH]5)[C@@H](CCC(=O)N(CCOCCOCCOC)CCOCCOCCOC)[C@@H]4C)c(C)c3CO[C@@H]1O[C@H](CO)[C@@H](O)[C@H](O)[C@H]1O` [Compound 14, phyllochlorin 13-hydroxymethyl-β-D-glucoside ether-N,N-bis-PEG3OMe propylamide], the IC90 in data set [1] was 0.186 µM. For the same molecule, in data set [2], the “Dark toxicity μM (IC10)” value was 0.626 µM.

On to `CCC1=C(C)c2cc3[nH]c(cc4nc(c(C)c5cc(C)c(cc1n2)[nH]5)[C@@H](CCC(=O)NCCOCCO[C@@H]1O[C@H](CO)[C@@H](O)[C@H](O)[C@H]1O)[C@@H]4C)c(C)c3CO[C@@H]1O[C@H](CO)[C@@H](O)[C@H](O)[C@H]1O` [Compound 16, phyllochlorin 13-hydroxymethyl-β-D-glucoside ether-β-D-1-glucose-2-ethoxy-N-ethanamine], for which the IC90 in data set [1] turned out to be 1.82 µM. Besides, the “Dark toxicity μM (IC10)” value in data set [2] worked out at 5.929 µM.

Turning to `CCC1=C(C)c2cc3[nH]c(cc4nc(c(C)c5cc(C)c(cc1n2)[nH]5)[C@@H](CCC(=O)O)[C@@H]4C)c(C)c3CO` [Compound 17, phyllochlorin 13-hydroxymethyl], in data set [1], the IC90 turned out to be 0.891 µM. The “Dark toxicity μM (IC10)” value in data set [2] came out at 25.000 µM.

For the molecule `CCC1=C(C)c2cc3[nH]c(cc4nc(c(C)c5cc(C)c(cc1n2)[nH]5)[C@@H](CCC(=O)N(C)CCCOCCC[P+](c1ccccc1)(c1ccccc1)c1ccccc1)[C@@H]4C)c(C)c3CO` [Compound 18], the IC90 in data set [1] was found to be 0.007 µM. Further, the “Dark toxicity μM (IC10)” value in data set [2] amounted to 4.393 µM.

On to `CCC1=C(C)c2cc3[nH]c(cc4nc(c(C)c5cc(C)c(cc1n2)[nH]5)[C@@H](CCC(=O)N(C)CCCOCCC[P+](c1ccccc1)(c1ccccc1)c1ccccc1)[C@@H]4C)c(C)c3CO[C@@H]1O[C@H](CO)[C@@H](O)[C@H](O)[C@H]1O` [Compound 19], for which, in data set [1], the IC90 is 0.018 µM. Besides, the “Dark toxicity μM (IC10)” value in data set [2] turned out to be 0.090 µM.

For `CCC1=C(C)c2cc3[nH]c(cc4nc(c(C)c5cc(C)c(cc1n2)[nH]5)[C@@H](CCC(=O)OC)[C@@H]4C)c(C)c3C(C)OCCC[n+]1ccccc1` (stereo partly drawn) [Compound 20, phyllochlorin methyl ester 3-pyridinium bromide propyl ether], the concentration for an effect of 90% (IC90) in data set [1] was found to be 0.003 µM. Also, the “Dark toxicity μM (IC10)” value in data set [2] is 1.998 µM.

Take `CCC1=C(C)c2cc3[nH]c(cc4nc(c(C)c5cc(C)c(cc1n2)[nH]5)[C@@H](CCC(=O)OC)[C@@H]4C)c(C)c3C(C)OCCOCC[n+]1ccccc1` (stereo partly drawn) [Compound 22, phyllochlorin methyl ester 2-(2-pyridiniumethoxy)ethyl ether chloride]: in data set [1], the IC90 was 0.004 µM. In addition, the “Dark toxicity μM (IC10)” value in data set [2] turned out to be 2.228 µM.

`CCC1=C(C)c2cc3[nH]c(cc4nc(c(C)c5cc(C)c(cc1n2)[nH]5)[C@@H](CCC(=O)OC)[C@@H]4C)c(C)c3C(C)OCCOCC[P+](c1ccccc1)(c1ccccc1)c1ccccc1` (stereo partly drawn) [Compound 23, phyllochlorin methyl ester 2-(2-triphenylphosphoniumethoxy)ethyl ether chloride]: in data set [1], the IC90 amounted to 0.012 µM. The “Dark toxicity μM (IC10)” value in data set [2] worked out at 3.086 µM.

As for `CCC1=C(C)c2cc3[nH]c(cc4nc(c(C)c5cc(C)c(cc1n2)[nH]5)[C@@H](CCC(=O)N(C)CCOCCOCCOCCOCCOCCOC)[C@@H]4C)c(C)c3CO` [Compound 24, phyllochlorin 13-hydroxymethyl N-methyl-N-3,6,9,12,15,18-hexaoxanonadecyl propylamide], in data set [1], the concentration for an effect of 90% (IC90) came to 0.503 µM. Moreover, in data set [2], the “Dark toxicity μM (IC10)” value stood at 41.190 µM.

With `CCC1=C(C)c2cc3[nH]c(cc4nc(c(C)c5cc(C)c(cc1n2)[nH]5)[C@@H](CCC(=O)N(C)CCOCCOCCOCCOCCOCCOC)[C@@H]4C)c(C)c3CO[C@@H]1O[C@H](CO)[C@@H](O)[C@H](O)[C@H]1O` [Compound 25, phyllochlorin 13-hydroxymethyl-β-D-glucoside ether-β-D-glucosel-N-methyl-N-3,6,9,12,15,18-hexaoxanonadecyl propylamide], in data set [1], the 90% effect concentration (IC90) amounted to 0.146 µM. For the same molecule, the “Dark toxicity μM (IC10)” value in data set [2] amounted to 0.279 µM.
